Columns and labels:
CbPrpB [1] = target: T1, CbPrpB (Coxiella burnetii, UniProt Q83DG5); assay: biochemical
T1 construct: gene prpB

CbPrpB [2] = target: T1, CbPrpB

T1 sequence (Q83DG5 1-290): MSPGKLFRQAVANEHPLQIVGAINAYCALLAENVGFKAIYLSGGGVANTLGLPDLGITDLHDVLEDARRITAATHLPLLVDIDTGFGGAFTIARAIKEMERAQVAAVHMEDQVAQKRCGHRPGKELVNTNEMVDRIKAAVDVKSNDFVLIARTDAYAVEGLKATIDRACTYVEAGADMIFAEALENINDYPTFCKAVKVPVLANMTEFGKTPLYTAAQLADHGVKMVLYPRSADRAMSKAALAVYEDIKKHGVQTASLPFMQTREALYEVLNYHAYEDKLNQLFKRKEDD

## O=C(O)C[C@H](C(=O)O)[C@@H](O)C(=O)O [isocitrate]
CbPrpB [1]
  Ki: 6 ± 2 mM

## CC(=O)C(=O)O [pyruvate]
CbPrpB [2]
  X-ray crystal structure, soak: We first determined the structure of product-bound CbPrpB

## O=C(O)CCC(=O)O [succinate]
CbPrpB [2]
  X-ray crystal structure, soak: We first determined the structure of product-bound CbPrpB

From doi:10.1101/2025.01.06.631558v1 (biorxiv, 2025)
